Values of other authors in patent publication US20150057617A1, “ANTI-MICROBIAL DRESSING, AN ANTI-MICROBIAL COMPOSITION AND USE THEREOF” (EMODIAL S.r.l., priority 2012, published 2015).

System: fibroblasts

[H]/N=C(\N/C(=N/[H])NCCCCCCNC(=N)NC(=N)Nc1ccc(Cl)cc1)Nc1ccc(Cl)cc1 [chlorhexidine]
cytotoxicity for fibroblasts: cytotoxic for fibroblasts
